Compound | melting point [°C]
CON=C(C)CCc1nc2c(N)nc3ccccc3c2n1CC(C)(C)O | 182 to 184
O=C(O)c1ccnc(-c2ccc3c(c2)C(c2ccc(Cl)cc2Cl)CC3)c1 (configuration not stated) | 205 to 206
C=CCNc1nc(N2CCc3ccccc3CC2)c(C#N)c(=O)n1CC=C | 181 to 182
Cc1ccc(OC2SCC(O)C(O)C2O)c(-c2ccoc2)n1 (configuration not stated) | 162
COc1ccc(NS(=O)(=O)N2CCn3c(c(C(N)=O)c(Cl)c3-c3ccccc3)C2)cc1 | 152 to 154
COc1cc(Nc2nc3cccc(-c4ccc(CNC(C)=O)cc4)c3o2)cc(OC)c1OC | 237 to 239
COc1cc(CCC(=O)CC(=O)c2ccccc2)ccc1O | 76 to 78
CNC(=S)Nc1cc(C)ccc1N1CCOCC1 | 107
Cc1ccc(C)c(CNc2cccc(S(=O)(=O)O)c2)c1 | > 275
O=C(Cc1nnn[nH]1)OCc1ccccc1 | 72 to 73
O=c1ccccn1[C@@H]1c2cc(C(F)(F)C(F)(F)C(F)(F)F)ccc2OC(CF)(CF)[C@H]1O (relative stereo) | 111 to 113
COC(=O)c1ccc(C(C)(C)C)[nH]c1=O | 171 to 174
COc1cccc2cc(C(=O)O)oc(=O)c12 | 251 to 253
CCOC(=O)c1cc2cc(OCOC)ccc2s1 | 74 to 75
CCCC(C)CNc1cccc(-c2ccnc3c(C(=O)c4cccs4)cnn23)c1 (configuration not stated) | 133 to 135
Cc1cc(CCCCCOc2cc(Cl)c(-c3nnc(C)o3)c(Cl)c2)on1 | 71 to 72
C[C@H](/C=C\c1ccc(Cc2ccc(F)cc2)s1)N(O)C(N)=O | 123 to 124
CCOc1ccc(C=C(CSC(C)=O)C(=O)NCCC(=O)OCc2ccccc2)cc1 | 92
COc1ccc(Oc2cnccc2N)c2ccccc12 | 126 to 129
CN(N)C(=S)Nc1ccc([N+](=O)[O-])cc1Cl | 164 to 167
CSc1ncc2cc(Oc3ccccc3F)c(=O)n(C)c2n1 | 234 to 236
CC1(C)OCCN1c1nc(-c2ccc(C#N)cc2)cs1 | 108 to 111
Fc1ccc(N2CCN(Cc3cn4cc(Cl)ccc4n3)CC2)cc1 | 130 to 131
CCOC(=O)c1c2ccc(Cl)cc2c(-c2ccccc2)n1CCCC(C)=O | 94 to 95
CN1CC(CCCN2CCN(c3ccccc3O)CC2)OC1=O (configuration not stated) | 112 to 116
O=C(O)c1ccc(-c2c3ccccc3nn2Cc2ccc(F)cc2)cc1 | 237 to 239

Compound | melting point [°C]
CCOC(=O)c1cnc2n(c1=O)C(C)CC=C2N(C)c1ccccc1 (configuration not stated) | 140 to 142
Cc1ccc(-c2nc(-c3ccc(C)cc3C)nc(-c3ccc(OCCCCCCO)cc3O)n2)c(C)c1 | 117 to 118
C=C(C)c1ccc(-c2ccc(C(=C)C)cc2)cc1 | 182
C#CCOc1ccc(OC)cc1-c1nc2cnccc2[nH]1 | 210
CC1CC(N)=NN1c1cncc(Cl)n1 (configuration not stated) | 147 to 148
COCc1cccc2oc(C(=O)Nc3ccc(-c4ccc(S(=O)(=O)N(C)C(C(=O)O)C(C)C)cc4)cc3)c(C)c12 (configuration not stated) | 144 to 146
CCOC(=O)c1cn(Cc2ccccc2)nc1OCc1ccc(OCc2nc(-c3ccco3)oc2C)c(OCc2ccccc2)c1 | 127 to 128
CC(=O)Nc1cccc(NC(=O)C=C(C)C)c1 | 144 to 148
O=C(OCc1c(Cl)ccc2cc(Cl)cnc12)c1ccccc1[N+](=O)[O-] | 152
CCOC(Cc1ccc(OCCCc2nc(-c3ccc(C(F)(F)F)cc3)oc2C)c2ccsc12)C(=O)O (configuration not stated) | 112 to 114
O=C(OCC12CCCN(CCC1)C2)c1c[nH]c2ccccc12 | 207 to 209
COCc1ccn2nc(SCc3ccccc3)nc2n1 | 92
Fc1cc(Cl)c(OC(F)F)cc1-c1ncnc(C(F)F)c1Cl | 56 to 57
O=c1cc(CO)oc(-c2ccccc2)c1O | 151 to 154
C=CS(=O)CCNC(=O)NC(=O)CCCl (configuration not stated) | 113 to 135
Cc1ncoc1C(O)c1ccco1 (configuration not stated) | 52 to 54
O=C(NCCCC(F)(F)F)C(c1ccccc1)c1ccccc1 | 166
CC(C)n1nc(-c2cc(C#N)c(=O)[nH]c2-c2ccccc2)ccc1=O | > 250
COC(=O)[C@H](Cc1cccc2ccccc12)NC(=O)[C@H](CC(=O)OC(C)(C)C)NC(=O)c1cccc(NC(=O)C(Cc2ccc(C#N)cc2)NC(=O)OC(C)(C)C)c1 (mixture of isomers) | 182 to 185
c1ccc(-c2nn3c(c2-c2cccc4nsnc24)CCC3)nc1 | 140 to 142
Cc1ccc(CSc2c(O)cc(-c3ccccc3)oc2=O)cc1 | 164 to 165
CCc1cn2ccccc2c1S(=O)(=O)c1ccc(OS(=O)(=O)c2ccc(C)cc2)c(C)c1 | 164
O=C(Nc1cccc2ccccc12)N[C@H]1C[C@H](C(=O)O)Nc2cc(Cl)cc(Cl)c21 (relative stereo) | 241 to 242
Cc1ccc(C(=O)NC(C)NC(=S)Nc2cccc([N+](=O)[O-])c2)cc1 (configuration not stated) | 172 to 175
CS(=O)(=O)On1nnc2c(Cl)cccc21 | 71 to 74
CN(CCCCC(=O)O)c1ccc(Br)cc1C=O | 72 to 73

Compound | melting point [°C]
CN1C(=O)N(CCC(NS(=O)(=O)c2ccc(-c3ccc(Cl)cc3)cc2)C(=O)NO)C(=O)C1(C)C (configuration not stated) | 117 to 120
COc1cn(-c2ccc(I)cc2F)nc(C(C)=O)c1=O | 196 to 198
CCCc1ccc(Br)nn1 | 35 to 36
Cc1c(C(C)F)nc[nH]c1=O (configuration not stated) | 108 to 109
CN1CCCC1=NC(=S)Nc1ccccc1 | 142 to 144
COc1ccc(-c2[nH]nc3c2C(=O)c2c(NC(=O)CN4CCN(c5ccccn5)CC4)cccc2-3)cc1 | > 300
CCN(CC)c1c(Cl)cc(C(O)CNC(C)(C)C)cc1Cl (configuration not stated) | 93 to 96
CS(=O)(=O)c1cccc(C(=O)O)c1O | 180
COCCOc1ccc(CCl)c(Oc2ncc(C(F)(F)F)cc2Cl)c1 | 108 to 111
Nc1c2c(nc3ccccc13)CCC2 | 180 to 182
CCCCCCC(C)Oc1cc(O)c2c(C)c(CCC(=O)OCC)c(=O)oc2c1 (configuration not stated) | 116 to 117
CCNCC1CCN(c2c(F)cc3c(=O)c(C(=O)O)cn4c3c2OCC4CC)C1 (configuration not stated) | 221 to 224
CC(=O)[NH+]([O-])C[C@@H]1CN(c2ccc(N3CCN(S(=O)(=O)c4ccccc4C#N)CC3)c(F)c2)C(=O)O1 (some centres not stated) | 190 to 192
CC(C)c1n[nH]c2c(O)nc(O)nc12 | 295 to 298
C=CCOc1ccccc1[N+](=O)[O-] | 70 to 72
COc1cc(C)cc(OCCCSCCC(=O)O)c1 | 39 to 42
CC(C)S(=O)(=O)n1c(N)nc2ccc(C(=CC(N)=O)c3ccccc3)cc21 | 211 to 212
COC1=c2ccccc2=c2ccc(Cl)cc2=C(c2ccccc2F)N1 | 136 to 138
O=C(Nc1n[nH]c2c(F)cccc12)c1ccccc1 | 232
COC(=O)CCCCCCCCCC1=C(C)C(=O)C(OC)=C(OC)C1=O | 37 to 38
Cc1ccc(-c2ccccc2C(=O)O)cc1C(=O)NCC1CCCCCC1 | 188 to 189
O=C(O)CCc1c(C(=O)O)[nH]c2cc(Br)cc(Br)c12 | 259
COC(=O)N(CC(=O)O)C(=O)c1cccc2c(C(F)(F)F)c(OC)ccc12 | 148 to 150
CCOC(=O)/C=C/c1ccc2cc(OCc3ccccc3)ccc2c1 | 110 to 112
Cc1nnc(-c2nsc3ccc([N+](=O)[O-])cc23)o1 | > 250
CS(=O)(=O)c1ccc(-n2nc(C(F)(F)F)cc2-c2ccc(-c3cocn3)cc2)cc1 | 175 to 177

Compound | melting point [°C]
COC(=O)c1cc(O)c2ccc(OCc3ccccc3)cc2c1 | 179 to 180
COCN(c1cccc2cc(-c3ncn(C)n3)n(COC)c12)S(=O)(=O)c1cccs1 | 157 to 158
COc1cc(OC)c2c(c1)N(Cc1ccccn1)C(=O)C21COc2cc3c(cc21)OCCO3 (configuration not stated) | 187 to 188
COc1ccc(-c2cc3ccccc3[nH]2)cc1NC(=S)N[C@H](C)c1ccccc1 | 179 to 181
Cc1ccc(F)c(-c2cc(Nc3ccnc4cn(CC(O)CO)nc34)ccn2)n1 (configuration not stated) | 182 to 184
CCOC(=O)c1c(O)c2ccccc2n(Cc2ccc(F)cc2)c1=O | 116 to 120
Cc1ccccc1C(NCC(=O)Nc1c(C(C)C)cccc1C(C)C)c1ccccc1 (configuration not stated) | 163 to 164
COC(=O)c1ccc(S(=O)(=O)n2c(=O)[nH]c3cc(Cl)ccc3c2=O)cc1 | > 230
O=C(CNC(=O)OCc1ccc([N+](=O)[O-])cc1)Oc1ccc(C(=O)OCI)cc1 | 146 to 148
CCCCc1nc2c(N)nc(C)c(C)c2n1CC(C)(C)NC(=O)NC1CCCCC1 | 128 to 130
NCCCP(=O)(O)CC(O)CN1C(=O)c2ccccc2C1=O (configuration not stated) | 268 to 271
COc1ccc(-n2nnc(-c3ccc(Cl)cc3Cl)c2N)cc1 | 155 to 164
CS(=O)(=O)c1ccc(Cl)cc1[N+](=O)[O-] | 145
CCN1CCc2c(NC(C)=O)ccc(Br)c2C1 | 168 to 169
Cc1ccc(S(=O)(=O)OCC2CCc3ncsc3C2)cc1 (configuration not stated) | 90 to 91
COc1c(Cl)ccc(-c2cc(N)c(Cl)c(C(=O)NOC3CCCO3)n2)c1F (configuration not stated) | 180 to 183
Nc1cc(Cl)c(Cl)cc1NCCO | 120
CC(=O)COc1ccc2c(c1)C(=O)NC(C)(C)O2 | 125 to 126
O=C(O)C(=NO)C(c1ccc(OCc2ccc3ccc(Cl)cc3n2)cc1)c1ccc(OCc2ccc3ccc(Cl)cc3n2)cc1 | 201 to 202
CCOC(=O)Nc1cc(C(C)=O)c2c(c1)N(NC(C)c1ccccc1)c1ccccc1CC2 (configuration not stated) | 144 to 152
CC(=O)/C(=C(/Br)I)c1ccccc1 | 53 to 55
O=c1cc(O)c2cccc([N+](=O)[O-])c2o1 | 242 to 245
CCOC(=O)N(C(C)=O)c1ccc(OCc2nc3ccccc3s2)cc1 | 155 to 160
COc1cc2c(cc1OCc1ccccc1)CCN(C(C)=O)C2 | 125 to 126

— a melting point compilation (Tetko et al.; mined from patent text by program, amines drawn as free bases though some values may be those of a salt)
